Data published in patent US7410989B2, “Compounds, methods and compositions useful for the treatment of bovine viral diarrhea virus (BVDV) infection and hepatitis C virus (HCV) infection” (The University of North Carolina at Chapel Hill, priority 2001, dated 2008).
Structures can show the parent of a compound that is named as a salt.

Columns and labels:
BVDV = experiment: Screening of antiviral compounds for anti-BVDV activity in MDBK cells; virus titre by immunoperoxidase monolayer assay; type: cell-based, bovine viral diarrhea virus; settings: 12.5 μM compound, BVDV MOI 0.5, day 3; for Day 3 Media TCID50/mL: culture medium; for Day 3 Cell Lysates % Control: titre as % of no-antiviral control
Description: 2.0 cm^2 wells in a 24-well plate were seeded with 50 μl of medium from 12 ml of MEM-eq (minimum essential medium (MEM) with Earle's salts supplemented with 10% (v/v) equine serum, sodium bicarbonate (0.75 mg/ml), L-glutamine (0.29 mg/ml), penicillin G (100 U/ml), streptomycin (100 μg/ml), and amphotericin B (0.25 μg/ml)), which was derived by trypsinization of a confluent monolayer of Madin Darby Bovine Kidney (MDBK) cells in a 25 cm^2 flask. Cells were incubated at 38.5° C. with 5% CO2 for 24 hours. The average number of cells per well was determined and later used to calculate appropriate multiplicities of infection (MOI) of BVDV virus. […]
The inoculated cells incubated for one hour at 38.5° C. with 5% CO2 in humidified air. The medium was removed from the wells, and the cells washed one time with Ca^2+ and Mg^2+-free PBS comprising antiviral compound (12.5 μM) (cells in the wells not initially treated with antiviral compounds were washed without antiviral compound). […] Three days post-inoculation, medium was removed and stored at −20° C. for assay. […] Seven days post-inoculation, medium was removed and stored at −80° C. for serial dilution & assay.
The MDBK cells were resuspended in MEM-eq with no antiviral compound. Uterine tubal cells (UTC) were freeze-thawed and stored at −80° C. for analysis. UTC lysates were serially diluted with medium from Day 7 and assayed by immunoperoxidase for the presence of BVDV.
All samples were assayed for BVDV using the immunoperoxidase monolayer assay as described in A. Afshar et al., Can J Vet Res; 55:91-93 (1991). Samples were assayed in triplicate by adding 50 μL of MEM-eq containing approximately 2.5×10^3 MDBK cells to 50-μL of each sample supplemented with 50 μL of fresh MEM-eq in a 96-well culture plate. Plates were incubated for 72 h at 38.5° C. in a humidified atmosphere of 5% CO2 and air before the immunoperoxidase labeling technique was performed as follows:
After fixation, potentially infected cells were incubated with monoclonal antibodies D89 (M. L. Vickers et al., J Vet Diagn Invest 2, 300-302 (1990); Xue W et al., J Clin Microbiol 28, 1688-1693 […] specific for E2/gp53, a major envelope glycoprotein of BVDV (Xue W et al., Vet Microbiol 57, 105-118 (1997)) and 20.10.6 specific for NS3-p80, a conserved nonstructural protein (W. V. Corapi et al., Am J Vet Res 51, 1388-1394 (1990)). After washing with PBS and Tween 20 to remove unbound antibodies, peroxidase-conjugated rabbit anti-mouse IgG (Jackson Immuno Research Lab, West Grove, Pa.) was added. After a short incubation period, unbound peroxidase-conjugated antibody was removed by washing with PBS and Tween 20. Finally, the enzyme substrate, aminoethyl carbazole (Zymed Laboratories, Inc., South San Francisco, Calif.), which produces a reddish-brown color when oxidized by horseradish peroxidase, was added. Color change was visualized under light microscopy and compared to known positive and negative controls on each plate.
The tissue culture infective dose 50% (TCID50)/ml of the exposure aliquot was determined by the method of Reed and Muench (L. J. Reed and H. Muench, Am J Hygiene 27, 493-497 (1938). Results of viral detection assays were compared using a Pearson Chi-square test statistic (J. Sall and A. Lehman, JMP Start Statistics (Duxbury Press, Belmont, Calif. (1996), 195-211).

Structure (SMILES): Cc1cc(NC(=N)N)ccc1-c1ccc(-c2ccc(NC(=N)N)cc2C)o1 [DB 680]
- Day 3 Cell Lysates TCID50/mL (BVDV): Negative
- Day 3 Media TCID50/mL (BVDV): Negative

Structure (SMILES): N=C(N)Nc1ccc(-c2ccc(-c3cccc(NC(=N)N)c3)o2)cc1 [DB 705]
- Day 3 Cell Lysates TCID50/mL (BVDV): Negative
- Day 3 Media TCID50/mL (BVDV): Negative

Structure (SMILES): Cl.Cl.N=C(N)Nc1ccc(-c2ccc(-c3ccc(NC(=N)N)cc3Cl)o2)c(Cl)c1
- melting point: 300 to 304 °C (dec.)

Structure (SMILES): Nc1ccc(-c2ccc(-c3nc4ccc(C5=NCCN5)cc4[nH]3)o2)cc1 (as salt: salt) [DB 456, 2-[5 (6)-{2-imidazolinyl}-2-benzimidazoyl]-5-(4-aminophenyl)furan]
- melting point: > 300 °C

Structure (SMILES): CC(C)NC(=N)c1ccc2[nH]c(-c3ccc(-c4ccc([N+](=O)[O-])cc4)o3)nc2c1 [DB 458, 2-[5 (6)-{N-isopropylamidino}-2-benzimidazoyl]-5-(4-nitrophenyl)furan]
- Day 3 Cell Lysates TCID50/mL (BVDV): Negative
- Day 3 Media TCID50/mL (BVDV): Negative

Structure (SMILES): Cc1cc(NC(=N)N)ccc1-c1ccc(-c2ccc(NC(=N)N)cc2C)s1 [DB 752]
- Day 3 Cell Lysates TCID50/mL (BVDV): 6.20E+02 TCID50/mL
- Day 3 Cell Lysates % Control (BVDV): 0.01%
- Day 3 Media TCID50/mL (BVDV): Negative

Structure (SMILES): O=[N+]([O-])c1ccc(-c2ccc(-c3nc4ccc(C5=NCCN5)cc4[nH]3)o2)cc1 (as salt: salt) [DB 457, 2-[5 (6)-{2-imidazolinyl}-2-benzimidazoyl]-5-(4-nitrophenyl)furan]
- melting point: > 300 °C

Structure (SMILES): CC(C)NC(=N)c1ccc2[nH]c(-c3ccc(-c4ccc(N)cc4)o3)nc2c1 [DB 459, 2-[5(6)-N-isopropylamidino-2-benzimidazoyl]-5-(4-aminophenyl)furan]
- Day 3 Cell Lysates TCID50/mL (BVDV): 1.00E+02 TCID50/mL
- Day 3 Cell Lysates % Control (BVDV): 0.0016%
- Day 3 Media TCID50/mL (BVDV): Negative
